Data reported in publication PMC11758220, “Identification of a Privileged Scaffold for Inhibition of Sterol Transport Proteins through the Synthesis and Ring Distortion of Diverse, Pseudo-Natural Products” (ACS Central Science, 2025).

How the values were obtained:
[1] = molecular target: T1, STARD4 (Homo sapiens, UniProt Q96DR4, C75S); experiment: Differential scanning fluorimetry (DSF), STARD4; assay type: binding; conditions: for ΔTm at 10 µM / STARD4 (DSF) ΔTm: single dose, Dose = 10 µM; for Kd: apparent Kd, mean of three experiments run in technical duplicates, read-out: STARD4 Kd,app (DSF); for STARD4 (DSF) ΔTmmax: maximal thermal shift
T1 construct: STARD4(2-205; C75S); made in house; host or cells: E. coli BL21(DE3)
T1 sequence (Q96DR4 2-205 C75S): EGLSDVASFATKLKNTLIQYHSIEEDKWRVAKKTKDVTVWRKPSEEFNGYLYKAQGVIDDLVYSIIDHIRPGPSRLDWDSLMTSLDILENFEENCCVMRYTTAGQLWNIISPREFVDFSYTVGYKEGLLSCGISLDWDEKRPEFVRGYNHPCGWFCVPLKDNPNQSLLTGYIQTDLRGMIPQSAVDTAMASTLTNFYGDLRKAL
Text: (§1) Protein expression constructs
(§2) Human ASTER domains of Aster-A(359-547), -B(364-552) and -C(318-504) were subcloned into a pGEX-6p-2rbs vector, thus introducing the cloning artifact ‘GPLGS’.3 The pGEX-6P-1-GST-OSBP(377- […]
(§3) a gift from James H. Hurley (University of California).4 The pHIS_2His6_Thrombin_STARD4(2-205;C75S) plasmid was a gift from Young Jun Im (Chonnam National University).5 STARD5A was a gift from Nicola Burgess-Brown (Addgene plasmid #42392; http://n2t.net/addgene:42392; […]
(§4) Protein expression and purification […]
(§5) vectors including an N-terminal PreScission-cleavable glutathione S-transferase (GST)-tag were expressed in Escherichia coli (E. coli) OverExpress C41 in Terrific Broth (TB) medium for 16 h at 18 °C after the induction with 0.1 mM isopropyl β-D-1-thiogalactopyranoside (IPTG). Cells were harvested at 3500 × g for 15 minutes and lysed by sonication in buffer containing 50 mM HEPES pH 7.5, 300 mM NaCl, 10 %v/v glycerol, 5 mM dithiothreitol (DTT), 0.1 %v/v Triton X-100 and protease inhibitor mix HP plus (Serva). The lysate was purified by affinity chromatography on a GSTrap FF column (Cytiva) using an ÄKTA Start (Cytiva) in buffer containing 50 mM HEPES pH 7.5, 300 mM NaCl, 10 %v/v glycerol, 5 mM DTT and 0.01 %v/v Triton X-100. The GST-tag was cleaved overnight on the column at 4 °C. The Aster sterol binding domains were further purified by size-exclusion chromatography (SEC) on a HiLoad 16/600 Superdex 75 pg (Cytiva) in buffer containing 20 mM HEPES pH 7.5, 300 mM NaCl, 10 %v/v […]
(§6) STARD5(6-213) harboring an N-terminal His6-Tag were expressed in E. coli BL21(DE3) in Luria-Bertani Broth (LB) medium for approximately 16 h at 18 °C after induction with 0.15 mM IPTG. Cells were harvested at 3500 × g for 15 minutes and lysed by sonication in buffer containing 50 mM HEPES pH 7.5, 150 mM NaCl, 5 %v/v glycerol, 5 mM DTT, 0.1 %v/v Triton X -100 and ethylenediaminetetraacetic acid (EDTA)-free protease inhibitor cocktail (Sigma-Aldrich). The cleared lysate was purified by affinity chromatography on a Ni-NTA Superflow Cartridge (Qiagen) using an ÄKTA Start (Cytiva) in buffer containing 50 mM HEPES pH 7.5, 150 mM NaCl, 5 %v/v glycerol, 5 mM DTT. START domains were eluted by using elution buffer containing 50 mM HEPES pH 7.5, 150 mM NaCl, 5 %v/v glycerol, 5 mM DTT and 500 mM imidazole. Proteins were further purified by SEC on a HiLoad 16/600 Superdex 75 pg (Cytiva) in buffer containing 20 mM HEPES pH 7.5, 150 mM NaCl, 5 %v/v glycerol and 2 mM DTT.
(§7) The ORP domain of human OSBP(377-807) in the pGEX-6p-1 vector with an N-terminal PreScission-cleavable GST-tag was expressed in E. coli OverExpress C41 in LB medium for 16 h at 18 °C after induction with 0.1 mM IPTG. Cells were harvested at 3500 × g for 15 minutes and lysed by sonication in buffer containing 20 mM HEPES pH 7.5, 300 mM NaCl, 10 %v/v glycerol, 5 mM DTT, 0.1 %v/v Triton X-100 and EDTA-free protease inhibitor cocktail (Sigma-Aldrich). The cleared lysate was purified by affinity chromatography on a GSTrap HF column (Cytiva) using an ÄKTA Start (Cytiva) in buffer containing 20 mM HEPES pH 7.5, 300 mM NaCl, 10 %v/v glycerol, 5 mM DTT. OSBP(377 -807) was eluted by using elution buffer containing 20 mM HEPES pH 7.5, 300 mM NaCl, 10 %v/v glycerol, 5 mM DTT and 10 mM reduced glutathione. Proteins were further purified by SEC on a HiLoad 16/600 Superdex 75 pg (Cytiva) using an ÄKTA Explorer (Cytiva) in buffer containing 20 mM HEPES pH 7.5, 150 mM NaCl, 10 %v/v glycerol and 2 mM DTT.
(§8) The ORP domains of human ORP1(534-950) in pET24b(+) and ORP2(49-480) in the pET24b(+) vector including an N-terminal His6-Tag were expressed in E. coli BL21(DE3) in TB medium for approximately 16 h at 18 °C after induction with 0.1 mM IPTG. Cells were collected at 3500 × g for 15 minutes and lysed by sonification in buffer containing 10 mM Tris-HCl pH 8, 300 mM NaCl, 5 % glycerol, 2 mM DTT, 0.1 % Triton X-100 and EDTA-free protease inhibitor cocktail (Sigma-Aldrich). The cleared […]

[2] = molecular target: T2, OSBP (Homo sapiens, UniProt P22059); experiment: Fluorescence polarisation (FP) competition with NBD-cholesterol, OSBP; assay type: binding; conditions: single dose; for OSBP (FP) inhibition: Dose = 10 µM
T2 construct: OSBP(377-807); host or cells: E. coli OverExpress C41
T2 sequence (P22059 377-807): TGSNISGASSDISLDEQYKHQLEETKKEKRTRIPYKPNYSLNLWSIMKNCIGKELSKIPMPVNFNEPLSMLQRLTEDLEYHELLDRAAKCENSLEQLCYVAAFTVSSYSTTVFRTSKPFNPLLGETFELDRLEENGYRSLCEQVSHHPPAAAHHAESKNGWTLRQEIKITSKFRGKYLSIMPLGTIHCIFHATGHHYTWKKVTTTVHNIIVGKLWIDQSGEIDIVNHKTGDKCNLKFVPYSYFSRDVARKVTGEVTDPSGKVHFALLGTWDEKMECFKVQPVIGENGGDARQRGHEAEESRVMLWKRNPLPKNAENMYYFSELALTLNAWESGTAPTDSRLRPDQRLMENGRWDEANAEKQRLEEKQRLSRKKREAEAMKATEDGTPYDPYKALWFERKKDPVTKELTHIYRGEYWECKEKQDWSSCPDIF
Text: as §1, §2, §3, §4, §5, §6, §7, §8

## C[C@]12CC[C@@H]3C[C@H]1CC[C@@]21C(=Nc2ccc(Br)cc21)O3 (racemic) [Compound 15b]
[1]
  ΔTm at 10 µM: 1.5 °C
[2]
  inhibition at 10 µM: 7%

## CC12CCC3CC1CCC21C(=Nc2ccc(N4CCOCC4)cc21)O3 (racemic) [Compound 19a]
[1]
  Kd: > 30 µM
  STARD4 (DSF) ΔTmmax: 1.1 °C
  ΔTm at 10 µM: 0.851 °C
[2]
  inhibition at 10 µM: 3%

## CC12CCC3CC1CCC21C(=Nc2ccc(Br)cc21)O3 (single isomer, unassigned; (+)) [(+)-15b]
[1]
  Kd: 7.89 µM
  STARD4 (DSF) ΔTmmax: 1.4 °C
  ΔTm at 10 µM: 0.0899 °C
[2]
  inhibition at 10 µM: 13.1%

## CC12CCC3CC1CCC21C(=Nc2ccc(N4CCOCC4)cc21)O3 (single isomer, unassigned; (+)) [(+)-19a]
[1]
  Kd: > 50 µM
  STARD4 (DSF) ΔTmmax: 1.1 °C
  STARD4 (DSF) ΔTm: 0.4 °C
[2]
  inhibition at 10 µM: 3.4%

## CC12CCC3CC1CCC21C(=Nc2ccc(N4CCOCC4)cc21)O3 (single isomer, unassigned; (-)) [(−)-19a]
[1]
  Kd: > 30 µM
  STARD4 (DSF) ΔTmmax: 1.3 °C
  STARD4 (DSF) ΔTm: 1.3 °C
[2]
  OSBP (FP) inhibition: 6.2%

## C[C@@]12CC[C@H]3C[C@@H]1CC[C@]21C(=Nc2ccc(Br)cc21)O3 [(−)-15b]
[1]
  Kd: 6.04 µM
  STARD4 (DSF) ΔTmmax: 3.6 °C
  ΔTm at 10 µM: 0.324 °C
[2]
  inhibition at 10 µM: 2.8%

## CC(C)Oc1ccc(C(=O)Nc2nc3c(s2)CN(C(=O)OC(C)(C)C)CC3)cc1 [Autogramin-2, reference compound]
[1]
  Kd: > 30 µM
  STARD4 (DSF) ΔTm: 0.2 °C
[2]
  OSBP (FP) inhibition: 9.0%

## Cc1c2c(nc3ccccc13)[C@@]1(C)CC[C@@H](O)C[C@H]1CC2 [Compound 2a]
[1]
  ΔTm at 10 µM: -0.141 °C
[2]
  inhibition at 10 µM: 10%

## C[C@]12CC[C@@H](O)C[C@H]1CCc1c2nc2ccccc2c1-c1ccccc1 [Compound 2b]
[1]
  STARD4 (DSF) ΔTm: -0.0888 °C
[2]
  OSBP (FP) inhibition: -12.0%

## Cc1c2c(nc3cc(Br)ccc13)[C@@]1(C)CC[C@@H](O)C[C@H]1CC2 [Compound 2c]
[1]
  STARD4 (DSF) ΔTm: 0.0489 °C
[2]
  OSBP (FP) inhibition: -4.0%

## C[C@]12CC[C@@H](O)C[C@H]1CCc1c2nc2ccccc2c1-c1ccc(F)cc1 [Compound 2d]
[1]
  ΔTm at 10 µM: -0.177 °C
[2]
  inhibition at 10 µM: 0%

## C[C@]12CC[C@@H](O)C[C@H]1CCc1c2nc2ccc(Cl)cc2c1-c1ccccc1 [Compound 2e]
[1]
  STARD4 (DSF) ΔTm: -0.00387 °C
[2]
  OSBP (FP) inhibition: 10.6%

## C[C@]12CC[C@@H](O)C[C@H]1CCc1c2[nH]c2ncccc12 [Compound 3]
[1]
  ΔTm at 10 µM: -0.021 °C
[2]
  inhibition at 10 µM: 2.5%

## C[C@]12CC[C@@H](O)C[C@H]1CCC[C@]21Nc2ccccc2-n2cccc21 [Compound 4]
[1]
  STARD4 (DSF) ΔTm: 0.7 °C
  ΔTm at 10 µM: 0.6 °C
[2]
  inhibition at 10 µM: 21%
  OSBP (FP) inhibition: 10.0%

## C[C@]12CC[C@@H](O)C[C@H]1CCC[C@]21NC(=O)c2ccccc2N1 [Compound 5a]
[1]
  STARD4 (DSF) ΔTm: -0.0769 °C
  ΔTm at 10 µM: -0.124 °C
[2]
  inhibition at 10 µM: 9.1%
  OSBP (FP) inhibition: 15.5%

## C[C@]12CC[C@@H](O)C[C@H]1CCC[C@]21NC(=O)c2ccc(F)cc2N1 [Compound 5b]
[1]
  STARD4 (DSF) ΔTm: 0.027 °C
  ΔTm at 10 µM: -0.0901 °C
[2]
  inhibition at 10 µM: 8.2%
  OSBP (FP) inhibition: 24.6%

## COc1ccc2c(c1)C(=O)N[C@]1(CCC[C@@H]3C[C@H](O)CC[C@@]31C)N2 [Compound 5c]
[1]
  STARD4 (DSF) ΔTm: -0.0518 °C
  ΔTm at 10 µM: -0.0676 °C
[2]
  inhibition at 10 µM: 18.2%
  OSBP (FP) inhibition: 6.4%

## C[C@]12CC[C@@H](O)C[C@H]1CCc1nc3ccccc3nc12 [Compound 7a]
[1]
  ΔTm at 10 µM: 0.0574 °C
[2]
  inhibition at 10 µM: 4%

## Cc1cc2nc3c(nc2cc1C)[C@@]1(C)CC[C@@H](O)C[C@H]1CC3 [Compound 7b]
[1]
  ΔTm at 10 µM: 0.27 °C
[2]
  inhibition at 10 µM: 24%

## C[C@]12CC[C@@H](O)C[C@H]1CCc1nc3cc(F)c(F)cc3nc12 [Compound 7c]
[1]
  STARD4 (DSF) ΔTm: 0.0575 °C
[2]
  OSBP (FP) inhibition: 8.0%

## C[C@]12CC[C@@H](O)C[C@H]1CCc1nc3cc(Cl)c(Cl)cc3nc12 [Compound 7d]
[1]
  STARD4 (DSF) ΔTm: -0.111 °C
[2]
  OSBP (FP) inhibition: -1.0%

## C[C@]12CC[C@@H](O)C[C@H]1CCc1nc3cc(Br)c(Br)cc3nc12 [Compound 7e]
[1]
  STARD4 (DSF) ΔTm: 0.0567 °C
[2]
  OSBP (FP) inhibition: 3.0%

## C[C@]12CC[C@@H](O)C[C@H]1CCc1sc(N)nc12 [Compound 8a]
[1]
  ΔTm at 10 µM: -0.00456 °C
[2]
  inhibition at 10 µM: 18.6%

## Cc1nc2c(s1)CC[C@@H]1C[C@H](O)CC[C@]21C [Compound 8b]
[1]
  STARD4 (DSF) ΔTm: 0.0902 °C
[2]
  OSBP (FP) inhibition: -1.3%
